Results: patent publication US7605272B2, “IGF-1R inhibitor” (Kyowa Hakko Kirin Co., Ltd., priority 2005, dated 2009)

Tests used:
NCI-H929 = experiment: Cytostatic activity on human multiple myeloma cell line NCI-H929 (WST-1); format: cell-based; conditions: 1 μmol/L, 72 hours; for inhibition at 1 µM: Homo sapiens, NCI-H929, 72 h, read-out: cytostatic rate (%) H929 (1 μmol/L)
In short: (§1)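 Cytostatic rate is 100 minus % growth relative to DMSO-only wells (100%) and blank wells (0%), read by WST-1 absorbance at 450/690 nm after 2 h. Compound at 1 or 10 μmol/L final was applied for 72 h at 37 °C to cells seeded 24 h earlier.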

KMS-11 = experiment: Cytostatic activity on human multiple myeloma cell line KMS-11 (WST-1); format: cell-based; conditions: 1 μmol/L, 72 hours; for inhibition at 1 µM: Homo sapiens, KMS-11, 72 h, read-out: cytostatic rate (%) KMS-11 (1 μmol/L)
In short: as §1

IGF-1R = biological target: T1, IGF-1R (Homo sapiens, UniProt P08069); experiment: IGF-1R inhibitory activity (kinase reaction, time-resolved fluoroimmunoassay); format: biochemical; conditions: IGF-1R active recombinant enzyme, test compound 10 μmol/L
T1 construct: purchased Upstate Co. 14-465
T1 sequence (P08069 959-1367 limits assumed): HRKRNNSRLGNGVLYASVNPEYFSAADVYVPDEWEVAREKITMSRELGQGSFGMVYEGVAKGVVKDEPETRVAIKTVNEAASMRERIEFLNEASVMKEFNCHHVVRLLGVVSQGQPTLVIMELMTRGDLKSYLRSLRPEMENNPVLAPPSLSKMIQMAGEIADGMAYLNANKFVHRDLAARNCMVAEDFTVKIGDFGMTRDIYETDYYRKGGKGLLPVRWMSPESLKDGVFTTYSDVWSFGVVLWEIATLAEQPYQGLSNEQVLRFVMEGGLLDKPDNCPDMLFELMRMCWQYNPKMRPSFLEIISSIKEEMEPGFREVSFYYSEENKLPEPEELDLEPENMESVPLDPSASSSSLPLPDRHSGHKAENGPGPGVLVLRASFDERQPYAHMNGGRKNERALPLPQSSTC
In short: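 Compounds were tested at a single 10 μmol/L concentration. Each was incubated with recombinant IGF-1R (200 μg/L), 10 mmol/L ATP, MgCl2/MnCl2 and Na3VO4 (pH 7.5) on immobilized poly(Glu-Tyr) peptide for 30 min at 24° C. Eu-anti-phosphotyrosine time-resolved fluorescence (340/615 nm) gave relative activity against no-compound and no-enzyme wells, reported as % inhibition.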

Row | inhibition at 10 µM (IGF-1R) | inhibitory activity (%) at 10 μmol/L (IGF-1R) | SMILES | inhibition at 1 µM (NCI-H929) | inhibition at 1 µM (KMS-11) | cytostatic rate (%) H929 (1 μmol/L) (NCI-H929) | cytostatic rate (%) KMS-11 (1 μmol/L) (KMS-11)
1 | 103% | – | COc1c(OCCN2CCOCC2)ccc(/C=C/c2n[nH]c3ccccc23)c1NC(=O)c1sccc1C [Compound 266, (E)-N-{6-[2-(1H-indazol-3-yl)vinyl]-2-methoxy-3-(2-morpholinoethoxy)phenyl}-3-methylthiophene-2-carboxamide] | 118% | 131% | – | –
2 | – | 100.3% | COCCN(CCN1CCOCC1)c1ccc(/C=C/c2n[nH]c3ccccc23)c(NC(=O)c2sccc2C)c1 [Compound 267, (E)-N-{2-[2-(1H-indazol-3-yl)vinyl]-5-[N-(2-methoxyethyl)-2-(morpholinoethyl)amino]phenyl}-3-methylthiophene-2-carboxamide] | – | – | 118.1% | 133.8%
3 | 101% | – | Cc1ccsc1C(=O)Nc1cc(CN2CCN(CCC#N)CC2)ccc1/C=C/c1n[nH]c2ccccc12 [Compound 268, (E)-N-{5-[4-(2-cyanoethyl)piperazin-1-ylmethyl]-2-[2-(1H-indazol-3-yl)vinyl]phenyl}-3-methylthiophene-2-carboxamide] | 118% | 129% | – | –
4 | 101% | – | CC(=O)N1CCN(Cc2ccc(/C=C/c3n[nH]c4ccccc34)c(NC(=O)c3sccc3C)c2)CC1 [Compound 269, (E)-N-{5-(4-acetylpiperazin-1-ylmethyl)-2-[2-(1H-indazol-3-yl)vinyl]phenyl}-3-methylthiophene-2-carboxamide] | 119% | 132% | – | –
5 | 100% | – | Cc1ccsc1C(=O)Nc1cc(CN2CCN(C=O)CC2)ccc1/C=C/c1n[nH]c2ccccc12 [Compound 270, (E)-N-{5-(4-formylpiperazin-1-ylmethyl)-2-[2-(1H-indazol-3-yl)vinyl]phenyl}-3-methylthiophene-2-carboxamide] | 121% | 129% | – | –
6 | 102% | – | COCCN1CCN(Cc2ccc(/C=C/c3n[nH]c4ccccc34)c(NC(=O)c3sccc3C)c2)CC1 [Compound 271, (E)-N-{2-[2-(1H-indazol-3-yl)vinyl]-5-[4-(2-methoxyethyl)piperazin-1-ylmethyl]phenyl}-3-methylthiophene-2-carboxamide] | 119% | 123% | – | –
7 | 101% | – | Cc1ccsc1C(=O)Nc1cc(N2CCN(S(C)(=O)=O)CC2)ccc1/C=C/c1n[nH]c2ccccc12 [Compound 272, (E)-N-{2-[2-(1H-indazol-3-yl)vinyl]-5-(4-methanesulfonylpiperazin-1-yl)phenyl}-3-methylthiophene-2-carboxamide] | 120% | 135% | – | –
8 | 104% | – | Cc1ccsc1C(=O)Nc1cc(N2CCN(CCO)CC2)ccc1/C=C/c1n[nH]c2ccccc12 [Compound 273, (E)-N-{5-[4-(2-hydroxyethyl)piperazin-1-yl]-2-[2-(1H-indazol-3-yl)vinyl]phenyl}-3-methylthiophene-2-carboxamide] | 115% | 111% | – | –
9 | 104% | – | Cc1ccsc1C(=O)Nc1cc(N2CCNCC2)ccc1/C=C/c1n[nH]c2ccccc12 [Compound 274, (E)-N-{2-[2-(1H-indazol-3-yl)vinyl]-5-piperazin-1-ylphenyl}-3-methylthiophene-2-carboxamide] | 114% | 108% | – | –
10 | 98.6% | – | COCCOc1ccc(/C=C/c2n[nH]c3ccccc23)c(NC(=O)c2sccc2C)c1 [Compound 275, (E)-N-{2-[2-(1H-indazol-3-yl)vinyl]-5-(2-methoxyethoxy)phenyl}-3-methylthiophene-2-carboxamide] | 118% | 116% | – | –
11 | 99.5% | – | Cc1ccsc1C(=O)Nc1cc(CN2CCN(CCCO)CC2)ccc1/C=C/c1n[nH]c2ccccc12 [Compound 277, (E)-N-{5-[4-(3-hydroxypropyl)piperazin-1-ylmethyl]-2-[2-(1H-indazol-3-yl)vinyl]phenyl}-3-methylthiophene-2-carboxamide] | 119% | 107% | – | –
12 | 98.2% | – | COCCN1CCN(c2ccc(/C=C/c3n[nH]c4ccccc34)c(NC(=O)c3sccc3C)c2)CC1 [Compound 279, (E)-N-{2-[2-(1H-indazol-3-yl)vinyl]-5-[4-(2-methoxyethyl)piperazin-1-yl]phenyl}-3-methylthiophene-2-carboxamide] | 112% | 111% | – | –
13 | – | 97.6% | Cc1ccsc1C(=O)Nc1cc(N(C)CCO)ccc1/C=C/c1n[nH]c2ccccc12 [Compound 280] | – | – | 112.2% | 109.0%
14 | 97.2% | – | Cc1ccsc1C(=O)Nc1cc(C(=O)N2CCN(CCO)CC2)ccc1/C=C/c1n[nH]c2ccccc12 [Compound 281, (E)-N-{5-[4-(2-hydroxyethyl)piperazin-1-ylcarbonyl]-2-[2-(1H-indazol-3-yl)vinyl]phenyl}-3-methylthiophene-2-carboxamide] | 128% | 115% | – | –
15 | 99.2% | – | Cc1ccsc1C(=O)Nc1cc(C(=O)NCCN2CCOCC2)ccc1/C=C/c1n[nH]c2ccccc12 [Compound 282, (E)-N-(2-[2-(1H-indazol-3-yl)vinyl]-5-{N-[2-(morpholin-4-yl)ethyl]carbamoyl}phenyl)-3-methylthiophene-2-carboxamide] | 130% | 123% | – | –
16 | 101% | – | CNC1CCN(C(=O)c2ccc(/C=C/c3n[nH]c4ccccc34)c(NC(=O)c3sccc3C)c2)C1 (stereo not drawn) [Compound 283, (E)-N-{2-[2-(1H-indazol-3-yl)vinyl]-5-[3-(methylamino)pyrrolidin-1-ylcarbonyl]phenyl}-3-methylthiophene-2-carboxamide] | 128% | 116% | – | –
17 | – | 97.5% | COCCN(CCN(C)C)c1ccc(/C=C/c2n[nH]c3ccccc23)c(NC(=O)c2sccc2C)c1 [Compound 284, (E)-N-{5-[N-(2-dimethylaminoethyl)-2-(methoxyethyl)amino]-2-[2-(1H-indazol-3-yl)vinyl]phenyl}-3-methylthiophene-2-carboxamide] | – | – | 121.2% | 130.8%
18 | 93.5% | – | O=C(Nc1cc(C(=O)N2CCN(CCO)CC2)ccc1/C=C/c1n[nH]c2ccccc12)c1cccs1 [Compound 289, (E)-N-{5-[4-(2-hydroxyethyl)piperazin-1-ylcarbonyl]-2-[2-(1H-indazol-3-yl)vinyl]phenyl}thiophene-2-carboxamide] | 102% | 73.6% | – | –
19 | 97.2% | – | COc1cc(/C=C/c2n[nH]c3ccccc23)c(NC(=O)c2sccc2C)cc1OCCCN1CCOCC1 [Compound 292, (E)-N-{2-[2-(1H-indazol-3-yl)vinyl]-4-methoxy-5-[3-(morpholin-4-yl)propyloxy]phenyl}-3-methylthiophene-2-carboxamide] | 113% | 122% | – | –
20 | 98.9% | – | COc1cc(/C=C/c2n[nH]c3ccccc23)c(NC(=O)c2sccc2C)cc1OCCN1CCOCC1 [Compound 293, (E)-N-{2-[2-(1H-indazol-3-yl)vinyl]-4-methoxy-5-[2-(morpholin-4-yl)ethoxy]phenyl}-3-methylthiophene-2-carboxamide] | 110% | 119% | – | –
21 | 98.2% | – | Cc1ccsc1C(=O)Nc1cc(CN2CCC(N(C)C)C2)ccc1/C=C/c1n[nH]c2ccccc12 (stereo not drawn) [Compound 294, (E)-N-{5-[3-(dimethylamino)pyrrolidin-1-ylmethyl]-2-[2-(1H-indazol-3-yl)vinyl]phenyl}-3-methylthiophene-2-carboxamide] | 118% | 116% | – | –
22 | 97.2% | – | Cc1ccsc1C(=O)Nc1cc(C(=O)N2CCC(N(C)C)C2)ccc1/C=C/c1n[nH]c2ccccc12 (stereo not drawn) [Compound 295, (E)-N-{5-[3-(dimethylamino)pyrrolidin-1-ylcarbonyl]-2-[2-(1H-indazol-3-yl)vinyl]phenyl}-3-methylthiophene-2-carboxamide] | 118% | 118% | – | –
23 | 99.9% | – | Cc1ccsc1C(=O)Nc1cc(CN2CCC(N3CCOCC3)CC2)ccc1/C=C/c1n[nH]c2ccccc12 [Compound 296, (E)-N-{2-[2-(1H-indazol-3-yl)vinyl]-5-[4-(morpholin-4-yl)piperidin-1-ylmethyl]phenyl}-3-methylthiophene-2-carboxamide] | 117% | 112% | – | –
24 | 101% | – | Cc1ccsc1C(=O)Nc1cc(C(=O)N(C)C2CCNCC2)ccc1/C=C/c1n[nH]c2ccccc12 [Compound 297, (E)-N-{2-[2-(1H-indazol-3-yl)vinyl]-5-[N-methyl-N-(piperidine-4-yl)carbamoyl]phenyl}-3-methylthiophene-2-carboxamide] | 116% | 94.5% | – | –
25 | 94.2% | – | COCCN(C)CCCOc1cc(NC(=O)c2sccc2C)c(/C=C/c2n[nH]c3ccccc23)cc1OC [Compound 298, (E)-N-{2-[2-(1H-indazol-3-yl)vinyl]-4-methoxy-5-{3-[N-(2-methoxyethyl)methylamino]propyloxy}phenyl}-3-methylthiophene-2-carboxamide] | 117% | 110% | – | –
